Article PMC12736951, “Design, Synthesis, and Biological Evaluation of 6″-Modified Apramycin Derivatives to Overcome Aminoglycoside Resistance” (Pharmaceutics, 2025)

Tests used:
[1] = system: E. coli JW5503 SmR; assay: MIC against transformant carrying ANT(3″); format: cell-based; conditions: Escherichia coli, JW5503SMR
Procedure: (§1) The determination of the MIC values was performed on five strains from the working collection of MSU. E. coli JW5503 [25], which lacked a kanamycin resistance cassette that had been removed as per the method outlined in [26], and a strain derived from this strain through in vitro selection with kanamycin. […] Strains containing AG-modifying enzymes were obtained through the transformation of E. coli JW5503 with plasmids that carried cassettes of resistance, namely pCRISPomyces-2–AAC(3)-IV (Addgene #61737), pdualrep2–APH(3′)-II [27] and pt67–ANT(3″). The MIC determination was performed as described for JW5503 in [19].

[2] = system: E. coli S30 Extract System, firefly luciferase synthesis; assay: Cell-free translation inhibition assay; format: biochemical; conditions: for inhibition of protein synthesis in vitro (firefly luciferase): 0.4 μM, E. coli S30 extract; for inhibitory effect on translation relative to apramycin (1): equivalent concentrations (0.4 μM)
Procedure: The inhibitory effects of the compounds under investigation on in vitro firefly luciferase synthesis were evaluated using the E. coli S30 Extract System for Linear Templates (Promega, Madison, WI, USA), as previously described. The working concentration for all tested compounds in the in vitro translation reaction was 0.4 μM. As all compounds were diluted in water, it was used as the negative control.

[3] = system: HEK293T human embryonic kidney cell line; assay: Cytotoxicity, MTT test; format: cell-based; conditions: HEK-293T, 72 h, 2-250 µg/mL, read-out: IC50, viability of HEK293T cells
Procedure: The MTT test was performed in order to evaluate the effect of the compounds on eukaryotic cells’ survivability. Compounds 5a,b, 8a,b, and apramycin, as the reference drug, were tested on HEK293T human embryonic kidney cell line (ATCC). Compounds 5a,b, 8a,b, and apramycin were prepared as water solutions with a 50 mg/mL concentration. The HEK293T cell line was cultivated in DMEM/F-12 medium (Paneco LLC, Moscow, Russia) containing 10% FBS, 50 µg/mL penicillin, and 50 µg/mL streptomycin (Thermo Fisher Scientific, USA) at 37 °C in 5% CO2. Triplicates on 96-well plates were used, and 2500 HEK293T cells were seeded in 140 µL of DMEM/F-12 medium in each well during day one. The next day, compounds in twofold successive dilutions were added to these plates (concentrations in wells ranged between 2 and 250 µg/mL for 5a, 5b, and 8a, 8b). Plates were incubated for 72 h at 37 °C in 5% CO2. Afterwards, 0.5 mg/mL of the MTT reagent (Paneco LLC, Moscow, Russia) was added to each well. After 2 h of incubation, the media with MTT was replaced with 140 µL of DMSO, and all plates were placed on a shaker for 10 min for formazan to dissolve. Finally, the absorbance at a 555 nm wavelength was measured on all plates via the plate reader Victor X5 (PerkinElmer, Waltham, MA, USA). The data were then normalized, and dose–response curves and IC50 were calculated by means of GraphPad Prism version 8.0.2. (GraphPad Software, Inc., San Diego, CA, USA).

[4] = system: E. coli JW5503 KanR; assay: MIC against transformant carrying APH(3′)-II; format: cell-based; conditions: Escherichia coli, JW5503KANR
Procedure: as §1

[5] = system: E. coli JW5503 EF-G P610T; assay: MIC against aminoglycoside-resistant EF-G mutant; format: cell-based; conditions: Escherichia coli
Procedure: as §1

[6] = system: E. coli JW5503 with pJC27 β-galactosidase codon 537 reporter; assay: Translation accuracy using β-galactosidase reporters; format: cell-based; conditions: 0.1 μL of 50 mg/mL, 37 °C, 18 h, codon 537 GAC/GGG reporters
Procedure: To evaluate translation accuracy in the presence of antibiotics, E. coli JW5503 (kanamycin resistance cassette removed as per) was transformed with pJC27 plasmids. […] The synthesis of active β-galactosidase depends on translation errors occurring (when codons GAC and GGG are read as GAA). Petri dishes (9 cm) containing 20 mL of solid LB agar (1.5%), supplemented with chloramphenicol (11.3 μg/mL) and X-Gal (80 μg/mL), were prepared. A secondary soft-agar layer comprising 3.5 mL of LB agar (0.6%) supplemented with 11.3 μg/mL chloramphenicol and 0.5 mL of liquid culture (A600~1.0) was added and allowed to solidify. Antibiotics were applied to the plates in 0.1 μL aliquots at a concentration of 50 mg/mL for tobramycin, streptomycin, kanamycin, and apramycin, and for 5a, 5b, 8a, and 8b. The plates were then incubated at 37 °C for 18 h. […] The results were documented using a Samsung Galaxy Tab A71 camera.

Structure (SMILES) | MIC [1] | inhibition of protein synthesis in vitro (firefly luciferase) [2] | inhibitory effect on translation relative to apramycin (1) [2] | IC50 [3] | MIC [4] | MIC [5] | induction of translation errors (blue staining at edge of inhibition zone) [6]
CNC1C(OC2OC(CNCCN)C(N)C(O)C2O)OC2CC(N)C(OC3C(N)CC(N)C(O)C3O)OC2C1O (stereo not shown) [Compound 5a, 6″-((2-Aminoethyl-1)-amino)-6″-deoxyapramycin acetate] | 32 µg/mL | inhibited protein synthesis in vitro | approximately one order of magnitude weaker | 243 ± 7 µg/mL | 16 µg/mL | 32 µg/mL | caused blue staining of the bacterial lawn
CNC1C(OC2OC(CNCCCN)C(N)C(O)C2O)OC2CC(N)C(OC3C(N)CC(N)C(O)C3O)OC2C1O (stereo not shown) [Compound 5b, 6″-((3-Aminopropyl-1)-amino)-6″-deoxyapramycin acetate] | 32 µg/mL | inhibited protein synthesis in vitro | approximately one order of magnitude weaker | > 250 µg/mL | 32 µg/mL | 64 µg/mL | caused blue staining of the bacterial lawn
CNC1C(OC2OC(CNCCNC(=N)N)C(N)C(O)C2O)OC2CC(N)C(OC3C(N)CC(N)C(O)C3O)OC2C1O (stereo not shown) [Compound 8a, 6″-((2-Guanidinoethyl-1)-amino)-6″-deoxyapramycin acetate] | 16 µg/mL | inhibited protein synthesis in vitro | approximately one order of magnitude weaker | > 250 µg/mL | 8 µg/mL | 32 µg/mL | caused blue staining of the bacterial lawn
CNC1C(OC2OC(CNCCCNC(=N)N)C(N)C(O)C2O)OC2CC(N)C(OC3C(N)CC(N)C(O)C3O)OC2C1O (stereo not shown) [Compound 8b, 6″-((3-Guanidinopropyl-1)-amino)-6″-deoxyapramycin acetate] | 32 µg/mL | inhibited protein synthesis in vitro | approximately one order of magnitude weaker | > 250 µg/mL | 16 µg/mL | 64 µg/mL | caused blue staining of the bacterial lawn
